From ChEMBL document CHEMBL1131654 (Bioorg Med Chem Lett, 1998)

What was measured:
[1] = target: 5-hydroxytryptamine receptor 1D (Homo sapiens, UniProt P28221); experiment: In vitro binding affinity was determined towards cloned human 5-hydroxytryptamine 1D receptor using [3H]5-CT radioligand
[2] = target: T1, 5-hydroxytryptamine receptor 1B (Homo sapiens, UniProt P28222); experiment: Effective concentration determined by measuring inhibition of forskolin-stimulated c-AMP formation at 5-hydroxytryptamine 1B receptor stably transfected in CHO cell lines; type: functional, cell-based
[3] = target: T1, 5-hydroxytryptamine receptor 1B; settings: Oryctolagus cuniculus; Saphenous vein
Description: 5-hydroxytryptamine 1B receptor agonist potency determined in rabbit saphenous vein contraction model

[4] = target: T1, 5-hydroxytryptamine receptor 1B; experiment: 5-HT1B agonist potency was evaluated as effective dose that induced hypothermia in the guinea-pig upon intraperitoneal administration; type: functional, organism-based; settings: Cavia porcellus; target entry is the homologue from another species
[5] = target: T1, 5-hydroxytryptamine receptor 1B; experiment: In vitro binding affinity was determined towards cloned human 5-hydroxytryptamine 1B receptor using [3H]5-CT radioligand
[6] = target: T1, 5-hydroxytryptamine receptor 1B; experiment: 5-hydroxytryptamine 1B receptor agonist potency was evaluated as effective dose that induced hypothermia in the guinea-pig upon intraperitoneal administration; type: functional, organism-based; settings: Cavia porcellus; target entry is the homologue from another species
[7] = target: T2, 5-hydroxytryptamine receptor 1A (Homo sapiens, UniProt P08908); experiment: In vitro binding affinity was determined towards cloned human 5-hydroxytryptamine 1A receptor using [3H]8-OH-DPAT radioligand
T2 sequence (P08908 whole entry): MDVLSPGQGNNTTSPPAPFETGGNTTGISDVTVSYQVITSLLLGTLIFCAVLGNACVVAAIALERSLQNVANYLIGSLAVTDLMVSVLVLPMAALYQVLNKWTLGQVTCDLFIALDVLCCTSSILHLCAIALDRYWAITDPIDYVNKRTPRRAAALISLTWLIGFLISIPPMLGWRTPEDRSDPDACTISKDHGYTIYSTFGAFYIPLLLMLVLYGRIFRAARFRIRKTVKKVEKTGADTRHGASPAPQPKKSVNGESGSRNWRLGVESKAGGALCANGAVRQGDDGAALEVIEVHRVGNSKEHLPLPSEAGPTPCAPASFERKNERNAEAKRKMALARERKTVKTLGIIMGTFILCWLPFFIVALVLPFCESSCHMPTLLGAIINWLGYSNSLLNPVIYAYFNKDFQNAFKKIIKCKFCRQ

T1 sequence (P28222 whole entry): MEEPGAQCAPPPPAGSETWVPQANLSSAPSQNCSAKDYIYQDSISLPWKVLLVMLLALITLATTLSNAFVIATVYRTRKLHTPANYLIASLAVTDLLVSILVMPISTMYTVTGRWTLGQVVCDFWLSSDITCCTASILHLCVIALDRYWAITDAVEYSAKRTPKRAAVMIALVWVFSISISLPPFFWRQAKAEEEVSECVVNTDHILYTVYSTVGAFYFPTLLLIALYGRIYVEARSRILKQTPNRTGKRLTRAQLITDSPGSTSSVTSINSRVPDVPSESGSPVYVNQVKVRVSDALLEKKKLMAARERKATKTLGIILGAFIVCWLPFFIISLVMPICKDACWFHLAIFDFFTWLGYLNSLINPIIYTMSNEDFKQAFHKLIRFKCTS
5-hydroxytryptamine receptor 1D, sequence (P28221 whole entry): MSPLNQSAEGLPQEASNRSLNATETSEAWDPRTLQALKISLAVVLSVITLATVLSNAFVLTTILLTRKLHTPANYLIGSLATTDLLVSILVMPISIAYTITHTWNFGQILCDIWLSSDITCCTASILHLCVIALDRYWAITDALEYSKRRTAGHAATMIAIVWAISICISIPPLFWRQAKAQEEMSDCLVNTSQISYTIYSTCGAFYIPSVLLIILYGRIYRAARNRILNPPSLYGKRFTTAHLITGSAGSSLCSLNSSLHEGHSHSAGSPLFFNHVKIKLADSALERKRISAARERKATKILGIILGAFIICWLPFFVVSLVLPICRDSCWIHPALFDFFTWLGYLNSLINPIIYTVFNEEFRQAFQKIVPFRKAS

| ED50 [6] | Ki [7] | Compound | Ki [1] | EC50 [2] | pD2 [3] | ED50 [4] | Ki [5] |
| --- | --- | --- | --- | --- | --- | --- | --- |
|  |  | CN(C)CCc1c[nH]c2ccc(C[C@H]3COC(=O)N3)cc12 [ZOLMITRIPTAN] | 0.76 nM | 15.7 nM | 6.2 | 3.2 mg/kg | 4.2 nM |
| 1.3 mg/kg | 17.7 nM | CN(C)CCc1c[nH]c2ccc(CS(=O)(=O)N(C)Cc3ccc(CN(C)S(=O)(=O)Cc4ccc5[nH]cc(CCN(C)C)c5c4)cc3)cc12 | 0.89 nM | 0.58 nM | 6.6 |  | 0.64 nM |
